This is an account of results in patent US9216999B2, “Substituted pyrrolo[2,3-h][1,6]naphthyridines and compositions thereof as JAK inhibitors” (priority 2011, dated 2015).

Molecules are shown by their SMILES. Where two headings read alike, the source gives them in different places.

What all share (assay type): biochemical
One experiment concerns the target JAK1 (Homo sapiens (Human), UniProt P23458). Put plainly: Enzyme assay (Assay Example^a 1), JAK1. The settings on record: ATP 100 μM.
Another experiment addresses JAK2 (Homo sapiens (Human), UniProt O60674). Put plainly: Enzyme assay (Assay Example^a 1), JAK2.
The target of a further experiment is JAK3 (Homo sapiens (Human), UniProt P52333). Put plainly: Enzyme assay (Assay Example^a 1), JAK3.
Sequence of JAK3 (P52333 whole entry): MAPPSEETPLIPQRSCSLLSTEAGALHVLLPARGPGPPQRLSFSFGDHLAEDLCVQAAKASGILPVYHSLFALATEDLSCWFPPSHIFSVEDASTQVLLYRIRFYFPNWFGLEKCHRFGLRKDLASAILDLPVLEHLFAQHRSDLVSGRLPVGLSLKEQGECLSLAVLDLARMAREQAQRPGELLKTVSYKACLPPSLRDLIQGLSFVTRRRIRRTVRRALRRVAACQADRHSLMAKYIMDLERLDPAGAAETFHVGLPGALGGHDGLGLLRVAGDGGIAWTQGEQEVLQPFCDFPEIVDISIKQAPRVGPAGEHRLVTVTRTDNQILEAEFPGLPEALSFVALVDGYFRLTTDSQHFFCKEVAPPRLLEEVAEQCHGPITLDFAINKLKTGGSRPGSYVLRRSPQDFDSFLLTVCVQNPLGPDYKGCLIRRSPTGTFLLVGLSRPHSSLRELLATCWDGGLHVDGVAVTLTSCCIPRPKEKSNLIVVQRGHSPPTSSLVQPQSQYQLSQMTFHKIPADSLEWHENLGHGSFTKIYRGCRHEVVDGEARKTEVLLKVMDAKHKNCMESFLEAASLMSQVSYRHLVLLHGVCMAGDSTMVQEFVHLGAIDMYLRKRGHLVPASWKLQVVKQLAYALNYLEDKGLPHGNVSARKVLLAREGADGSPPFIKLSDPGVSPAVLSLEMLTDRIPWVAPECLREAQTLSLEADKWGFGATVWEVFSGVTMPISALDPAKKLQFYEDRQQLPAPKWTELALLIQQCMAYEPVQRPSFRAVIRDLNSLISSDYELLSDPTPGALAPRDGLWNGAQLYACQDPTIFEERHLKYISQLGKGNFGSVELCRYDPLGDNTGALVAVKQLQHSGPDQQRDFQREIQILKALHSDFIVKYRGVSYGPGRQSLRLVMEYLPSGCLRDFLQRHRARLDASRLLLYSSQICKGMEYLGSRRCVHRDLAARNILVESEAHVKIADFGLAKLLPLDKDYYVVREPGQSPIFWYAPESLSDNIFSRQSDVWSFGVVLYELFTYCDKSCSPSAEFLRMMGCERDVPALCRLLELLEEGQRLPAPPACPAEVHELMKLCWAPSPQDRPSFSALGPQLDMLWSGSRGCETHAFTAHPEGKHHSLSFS
In a further experiment the target is Tyk2 (Homo sapiens (Human), UniProt P29597). Put plainly: Enzyme assay (Assay Example^a 1), Tyk2. The settings on record: ATP 100 μM.
Sequence of Tyk2 (P29597 whole entry): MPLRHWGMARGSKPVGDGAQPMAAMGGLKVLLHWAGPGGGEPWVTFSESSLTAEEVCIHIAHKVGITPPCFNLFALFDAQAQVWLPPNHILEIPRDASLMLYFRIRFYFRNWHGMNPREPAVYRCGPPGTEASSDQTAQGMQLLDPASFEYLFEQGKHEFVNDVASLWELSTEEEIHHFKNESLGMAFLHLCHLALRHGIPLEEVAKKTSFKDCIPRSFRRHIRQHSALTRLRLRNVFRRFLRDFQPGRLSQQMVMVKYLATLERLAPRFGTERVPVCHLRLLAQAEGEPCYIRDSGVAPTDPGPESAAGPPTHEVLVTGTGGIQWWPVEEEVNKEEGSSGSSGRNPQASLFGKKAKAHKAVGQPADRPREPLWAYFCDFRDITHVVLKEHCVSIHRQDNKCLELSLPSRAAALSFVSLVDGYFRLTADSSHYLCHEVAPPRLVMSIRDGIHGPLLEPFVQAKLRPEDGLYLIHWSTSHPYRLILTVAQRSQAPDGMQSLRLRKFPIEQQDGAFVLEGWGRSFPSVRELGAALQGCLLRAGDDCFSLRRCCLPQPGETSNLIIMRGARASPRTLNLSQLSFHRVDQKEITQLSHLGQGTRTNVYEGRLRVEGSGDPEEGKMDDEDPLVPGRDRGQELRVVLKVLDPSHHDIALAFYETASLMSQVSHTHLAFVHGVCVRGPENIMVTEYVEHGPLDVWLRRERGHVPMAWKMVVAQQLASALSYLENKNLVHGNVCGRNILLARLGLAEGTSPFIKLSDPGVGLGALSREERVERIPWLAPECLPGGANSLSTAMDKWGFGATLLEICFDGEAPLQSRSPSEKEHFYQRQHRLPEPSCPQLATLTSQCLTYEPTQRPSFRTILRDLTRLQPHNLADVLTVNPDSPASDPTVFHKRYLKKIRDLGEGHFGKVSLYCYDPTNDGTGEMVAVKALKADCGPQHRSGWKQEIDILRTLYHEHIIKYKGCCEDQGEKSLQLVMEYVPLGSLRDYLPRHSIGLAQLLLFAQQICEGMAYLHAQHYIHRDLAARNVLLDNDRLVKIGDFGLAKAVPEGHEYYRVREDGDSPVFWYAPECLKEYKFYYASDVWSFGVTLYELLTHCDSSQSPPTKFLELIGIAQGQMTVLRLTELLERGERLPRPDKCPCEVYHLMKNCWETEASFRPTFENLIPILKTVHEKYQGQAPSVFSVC

What is called IC50 is the concentration at which inhibition is half-maximal. The low end stands for greater potency in that assay, the high end for weaker potency in that assay. Turning to `c1cc2c(ncn3nnc([C@H]4CC[C@@H](NN5CCOCC5)CC4)c23)[nH]1` [139a], the IC50 was 0.26 µM against JAK1 (Table^a 154); 0.4 µM on JAK2 (ATP 100 μM, Table^a 154); 0.43 µM against JAK3 (ATP 100 μM, Table^a 154); more than 1 µM against Tyk2 (Table^a 154).

Regarding `c1cc2c(ncn3nnc([C@H]4CC[C@H](NN5CCOCC5)CC4)c23)[nH]1` [139b], the half-maximal inhibitory concentration (IC50) against JAK1 (Table^a 154) was 0.021 µM; against JAK2 (ATP 100 μM, Table^a 154), 0.076 µM; on JAK3 (ATP 100 μM, Table^a 154) it was more than 1 µM; against Tyk2 (Table^a 154) it was 0.5 µM.

On to `c1ccc(CN[C@H]2CC[C@@H](c3nnn4cnc5[nH]ccc5c34)CC2)cc1` [194a, cis-N-benzyl-4-(7H-pyrrolo[3,2-e][1,2,3]triazolo[1,5-c]pyrimidin-1-yl)cyclohexanamine], for which the concentration for half-maximal inhibition (IC50) on JAK1 (Table^a 154) is 0.032 µM; against JAK2 (ATP 100 μM, Table^a 154), 0.74 µM; on JAK3 (ATP 100 μM, Table^a 154) it was more than 1 µM; against Tyk2 (Table^a 154), 0.33 µM.

On to `c1ccc(CN[C@H]2CC[C@H](c3nnn4cnc5[nH]ccc5c34)CC2)cc1` [194b, trans-N-benzyl-4-(7H-pyrrolo[3,2-e][1,2,3]triazolo[1,5-c]pyrimidin-1-yl)cyclohexanamine], for which the half-inhibitory concentration (IC50) against JAK1 (Table^a 154) was 0.0084 µM; against JAK2 (ATP 100 μM, Table^a 154), 0.046 µM; against JAK3 (ATP 100 μM, Table^a 154) it was 0.5 µM; at Tyk2 (Table^a 154), 0.11 µM.

`Fc1ccc(CN[C@H]2CC[C@@H](c3nnn4cnc5[nH]ccc5c34)CC2)cc1` [195a, cis-N-(4-fluorobenzyl)-4-(7H-pyrrolo[3,2-e][1,2,3]triazolo[1,5-c]pyrimidin-1-yl)cyclohexanamine]: the concentration for half-maximal inhibition (IC50) on JAK1 (Table^a 154) was 0.03 µM; on JAK2 (ATP 100 μM, Table^a 154) it was 0.55 µM; on JAK3 (ATP 100 μM, Table^a 154), more than 1 µM; at Tyk2 (Table^a 154), 0.31 µM.

With `Fc1ccc(CN[C@H]2CC[C@H](c3nnn4cnc5[nH]ccc5c34)CC2)cc1` [195b, trans-N-(4-fluorobenzyl)-4-(7H-pyrrolo[3,2-e][1,2,3]triazolo[1,5-c]pyrimidin-1-yl)cyclohexanamine], the 50% inhibitory concentration (IC50) was 0.007 µM at JAK1 (Table^a 154); 0.042 µM at JAK2 (ATP 100 μM, Table^a 154); 0.56 µM against JAK3 (ATP 100 μM, Table^a 154); 0.12 µM on Tyk2 (Table^a 154).

For `Clc1ccc(CCN[C@H]2CC[C@H](c3nnn4cnc5[nH]ccc5c34)CC2)cc1` [198b, trans-N-(4-chlorophenethyl)-4-(7H-pyrrolo[3,2-e][1,2,3]triazolo[1,5-c]pyrimidin-1-yl)cyclohexanamine], the IC50 was 0.0025 µM against JAK1 (Table^a 154); 0.037 µM at JAK2 (ATP 100 μM, Table^a 154); 0.4 µM on JAK3 (ATP 100 μM, Table^a 154); 0.065 µM against Tyk2 (Table^a 154).

Regarding `Fc1ccc(CCN[C@H]2CC[C@H](c3nnn4cnc5[nH]ccc5c34)CC2)cc1` [201b, trans-N-(4-fluorophenethyl)-4-(7H-pyrrolo[3,2-e][1,2,3]triazolo[1,5-c]pyrimidin-1-yl)cyclohexanamine], the 50% inhibitory concentration (IC50) against JAK1 (Table^a 154) amounted to 0.0039 µM; on JAK2 (ATP 100 μM, Table^a 154), 0.066 µM; against JAK3 (ATP 100 μM, Table^a 154), 0.41 µM; at Tyk2 (Table^a 154), 0.1 µM.

Regarding `FC(F)(Br)CN[C@H]1CC[C@@H](c2nnn3cnc4[nH]ccc4c23)CC1` [382a, cis-N-(2-bromo-2,2-difluoroethyl)-4-(7H-pyrrolo[3,2-e][1,2,3]triazolo[1,5-c]pyrimidin-1-yl)cyclohexanamine], the IC50 was determined as 0.015 µM against JAK1, 0.063 µM on JAK2, 0.75 µM on JAK3 and 0.76 µM at Tyk2.

In the case of `FC(F)(Br)CN[C@H]1CC[C@H](c2nnn3cnc4[nH]ccc4c23)CC1` [382b, trans-N-(2-bromo-2,2-difluoroethyl)-4-(7H-pyrrolo[3,2-e][1,2,3]triazolo[1,5-c]pyrimidin-1-yl)cyclohexanamine], the concentration for half-maximal inhibition (IC50) is 0.00031 µM against JAK1, 0.0028 µM at JAK2, 0.07 µM against JAK3 and 0.013 µM against Tyk2.

`FC(F)(F)C(F)(F)CN[C@H]1CC[C@@H](c2nnn3cnc4[nH]ccc4c23)CC1` [383a, cis-N-(2,2,3,3,3-pentafluoropropyl)-4-(7H-pyrrolo[3,2-e][1,2,3]triazolo[1,5-c]pyrimidin-1-yl)cyclohexanamine]: the IC50 is 0.09 µM on JAK1, 0.37 µM against JAK2 (ATP 100 μM), more than 1 µM on JAK3 (ATP 100 μM) and more than 1 µM against Tyk2.

As for `FC(F)(F)C(F)(F)CN[C@H]1CC[C@H](c2nnn3cnc4[nH]ccc4c23)CC1` [383b, trans-N-(2,2,3,3,3-pentafluoropropyl)-4-(7H-pyrrolo[3,2-e][1,2,3]triazolo[1,5-c]pyrimidin-1-yl)cyclohexanamine], the half-inhibitory concentration (IC50) against JAK1 was 0.0015 µM; against JAK2 (ATP 100 μM) it was 0.013 µM; against JAK3 (ATP 100 μM), 0.5 µM; at Tyk2, 0.17 µM.

In the case of `O=C(CN[C@H]1CC[C@@H](c2nnn3cnc4[nH]ccc4c23)CC1)NCC(F)(F)F` [384a, 2-{[cis-4-(7H-pyrrolo[3,2-e][1,2,3]triazolo[1,5-c]pyrimidin-1-yl)cyclohexyl]amino}-N-(2,2,2-trifluoroethyl)acetamide], the IC50 is 0.087 µM at JAK1, 0.56 µM against JAK2 (ATP 100 μM), more than 1 µM against JAK3 (ATP 100 μM) and more than 1 µM against Tyk2.

With `O=C(CN[C@H]1CC[C@H](c2nnn3cnc4[nH]ccc4c23)CC1)NCC(F)(F)F` [384b, 2-{[trans-4-(7H-pyrrolo[3,2-e][1,2,3]triazolo[1,5-c]pyrimidin-1-yl)cyclohexyl]amino}-N-(2,2,2-trifluoroethyl)acetamide], the half-inhibitory concentration (IC50) against JAK1 is 0.022 µM; against JAK2 (ATP 100 μM), 0.08 µM; on JAK3 (ATP 100 μM) it was more than 1 µM; against Tyk2 it was more than 1 µM.

Consider `OC(CN[C@H]1CC[C@H](c2nnn3cnc4[nH]ccc4c23)CC1)(c1cccnc1)C(F)(F)F` (stereo partly drawn) [385b, 3-{[trans-4-(7H-pyrrolo[3,2-e][1,2,3]triazolo[1,5-c]pyrimidin-1-yl)cyclohexyl]amino}-1,1,1-trifluoro-2-(pyridin-3-yl)propan-2-ol], for which the IC50 was determined as 0.0019 µM against JAK1, 0.031 µM on JAK2 (ATP 100 μM), 0.18 µM on JAK3 (ATP 100 μM) and 0.21 µM on Tyk2.

As to `CSc1ccc(C(O)(CN[C@H]2CC[C@H](c3nnn4cnc5[nH]ccc5c34)CC2)C(F)(F)F)cc1` (stereo partly drawn) [386b, 3-{[trans-4-(7H-pyrrolo[3,2-e][1,2,3]triazolo[1,5-c]pyrimidin-1-yl)cyclohexyl]amino}-1,1,1-trifluoro-2-[4-(methylthio)phenyl]propan-2-ol], the IC50 against JAK1 is 0.0017 µM; against JAK2 (ATP 100 μM), 0.027 µM; against JAK3 (ATP 100 μM), 0.28 µM; against Tyk2, 0.39 µM.

Take `COc1ccc(C(O)(CN[C@H]2CC[C@H](c3nnn4cnc5[nH]ccc5c34)CC2)C(F)(F)F)cn1` (stereo partly drawn) [387b, 3-{[trans-4-(7H-pyrrolo[3,2-e][1,2,3]triazolo[1,5-c]pyrimidin-1-yl)cyclohexyl]amino}-1,1,1-trifluoro-2-(6-methoxypyridin-3-yl)propan-2-ol]: the 50% inhibitory concentration (IC50) against JAK1 came out at 0.0019 µM; against JAK2 (ATP 100 μM), 0.032 µM; on JAK3 (ATP 100 μM), 0.12 µM; on Tyk2, 0.18 µM.

For the compound `COc1ccc(C(O)(CN[C@H]2CC[C@H](c3nnn4cnc5[nH]ccc5c34)CC2)C(F)(F)F)cc1` (stereo partly drawn) [388b, 3-{[trans-4-(7H-pyrrolo[3,2-e][1,2,3]triazolo[1,5-c]pyrimidin-1-yl)cyclohexyl]amino}-1,1,1-trifluoro-2-(4-methoxyphenyl)propan-2-ol], the IC50 on JAK1 stood at 0.0012 µM; against JAK2 (ATP 100 μM) it was 0.025 µM; at JAK3 (ATP 100 μM), 0.26 µM; at Tyk2, 0.21 µM.
